Measurements: patent publication US20150315211A1, “SMALL MOLECULES FOR THE MODULATION OF MCL-1 AND METHODS OF MODULATING CELL DEATH, CELL DIVISION, CELL DIFFERENTIATION AND METHODS OF TREATING DISORDERS” (priority 2010, published 2015)
Where two headings read alike, the source gives them in different places.

Columns and labels:
[1] = target: MCL-1ΔNΔC (Homo sapiens, UniProt Q07820); experiment: High-throughput competitive FP binding screen, FITC-MCL-1 SAHB/MCL-1ΔNΔC interaction; set-up: the C-terminal alpha-helix was deleted from each of these constructs; GST (N, cleaved yes); made in house
Sequence of MCL-1ΔNΔC (Homo sapiens, UniProt Q07820) (Q07820 172-320 limits assumed, stated change not applied): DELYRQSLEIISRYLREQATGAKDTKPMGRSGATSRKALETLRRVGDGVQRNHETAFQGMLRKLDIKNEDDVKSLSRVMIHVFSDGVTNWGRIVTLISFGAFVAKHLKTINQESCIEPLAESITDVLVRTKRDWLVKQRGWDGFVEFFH

[2] = system: MCL-1ΔNΔC; experiment: as above
[3] = target: BCL-XLΔC (Homo sapiens, UniProt Q07817); experiment: High-throughput competitive FP binding screen, FITC-BAD BH3/BCL-XLΔC interaction
Sequence of BCL-XLΔC (Q07817 1-212 limits assumed, stated change not applied): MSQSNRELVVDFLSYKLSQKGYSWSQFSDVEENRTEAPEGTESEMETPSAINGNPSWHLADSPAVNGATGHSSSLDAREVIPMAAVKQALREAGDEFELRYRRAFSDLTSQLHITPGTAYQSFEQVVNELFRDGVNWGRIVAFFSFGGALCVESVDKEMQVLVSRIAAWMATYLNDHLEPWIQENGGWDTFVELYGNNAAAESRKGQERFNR

[4] = FITC-MCL-1 SAHB/MCL-1ΔNΔC interaction pair, competitive FP screen
[5] = selectivity for MCL-1ΔNΔC over BCL-XLΔC targeting (BCL-XL % Bound minus MCL-1 % Bound)
[6] = FITC-BAD BH3/BCL-XLΔC interaction pair, competitive FP screen

SMILES | MCL-1% Bound [1] [%] | Spec Values [2] | BCL-XL % Bound [3] [%] | MCL-1% Bound [1, 4] [%] | Spec Values [2, 5] | BCL-XL % Bound [3, 6] [%]
Cc1cc2c(C(C)C)c(O)c(O)c(C=O)c2c(O)c1-c1c(C)cc2c(C(C)C)c(O)c(O)c(C=O)c2c1O.[Na+].[Na+] | 3.955 | 97.07 | 101 | – | – | –
O=C(/C=C/c1ccco1)Nc1ccc(Br)cc1 | – | – | – | 47.95 | 48.95 | 96.9
Cc1cc(NC(=O)/C=C/c2ccco2)n(-c2nc3ccccc3n2Cc2cccc(Oc3ccccc3)c2)n1 | – | – | – | 56.33 | 48.1 | 104.4
Cc1ccc(/C=C/C(=O)N2CCN(C(c3ccccc3)c3ccccc3)CC2)o1 | – | – | – | 55.15 | 48.08 | 103.2
O=C(/C=C/c1ccco1)Nc1ccc2ccccc2c1 | – | – | – | 64.64 | 48.07 | 112.7
Cc1ccc(/C=C2\C(=O)N(c3ccccc3)c3ccccc32)o1 | – | – | – | 62.72 | 47.36 | 110.1
COc1ccc(-c2nc3scc(CCNC(=O)/C=C/c4ccco4)n3n2)cc1 | – | – | – | 40.51 | 46.24 | 86.75
O=C(/C=C/c1ccco1)Nc1cccc(-c2nc3ccccc3o2)c1 | – | – | – | 66.09 | 45.91 | 112
O=C(/C=C/c1ccco1)NCc1ccccc1 | – | – | – | 56.1 | 45.66 | 101.8
CN(Cc1ccc(-c2ccc(Br)cc2)o1)C(=O)c1ccc(S(N)(=O)=O)cc1 | – | – | – | 69.53 | 45.66 | 115.2
Cc1ccc(CN(C)C(=O)c2ccccc2OCCOc2ccccc2)o1 | – | – | – | 68.8 | 45.38 | 114.2
CC1CCN(C2=NN3C(=N)C(Cc4ccc(SCc5ccco5)o4)C(=O)N=C3S2)CC1 (stereo not shown) | – | – | – | 14.3 | 70.38 | 84.68
Cc1ccccc1OCC1=NN2C(=N)/C(=C\c3cccn3-c3cccc(Cl)c3)C(=O)N=C2S1 | – | – | – | 25.28 | 67.61 | 92.89
Cc1ccccc1OCC1=NN2C(=N)/C(=C\c3ccc(SCc4ccco4)o3)C(=O)N=C2S1 | – | – | – | 19.18 | 54.65 | 73.83
CS(=O)(=O)C1=NN2C(=N)/C(=C\c3ccc(-c4ccc(Cl)cc4)o3)C(=O)N=C2S1 | – | – | – | 33.28 | 49.33 | 82.61
CCCCSC1=C(C#N)C(=O)NC(c2ccc(OC)cc2)S1 (stereo not shown) | – | – | – | 24.59 | 74.73 | 99.33
CCCCSC1=C(C#N)C(=O)NC(c2ccco2)S1 (stereo not shown) | – | – | – | 18.96 | 73.94 | 92.91
CCSC1=C(C#N)C(=O)NC(c2ccc(O)cc2)S1 (stereo not shown) | – | – | – | 15.17 | 69.65 | 84.82
CCSC1=C(C#N)C(=O)NC(c2ccc(N(C)C)cc2)S1 (stereo not shown) | – | – | – | 30.49 | 49.2 | 79.68
CCCOC(=O)c1cc(-c2ccc(/C=C3\C(=O)NC(=O)C(C#N)=C3C)o2)ccc1Cl | – | – | – | −10.6 | 97.76 | 87.16
CC1=C(C#N)C(=O)N(CCc2ccccc2)C(=O)/C1=C/c1ccc(-c2ccc(S(N)(=O)=O)cc2)o1 | – | – | – | 7.037 | 90.31 | 97.35
CC1=C(C#N)C(=O)N(C)C(=O)/C1=C/c1ccc(-c2cccc(Cl)c2C)o1 | – | – | – | 3.369 | 82.88 | 86.24
CCCOC(=O)c1cc(-c2ccc(/C=C3\C(=O)N(CCCO)C(=O)C(C#N)=C3C)o2)ccc1Cl | – | – | – | −7.072 | 82.57 | 75.5
CCCN1C(=O)C(C#N)=C(C)/C(=C\c2ccc(-c3ccc(Br)cc3)o2)C1=O | – | – | – | 20.59 | 81.6 | 102.2

SMILES | MCL-1% Bound [1] [%] | Spec Values [2] | BCL-XL % Bound [3] [%] | MCL-1% Bound [1, 4] [%] | Spec Values [2, 5] | BCL-XL % Bound [3, 6] [%]
CC1=C(C#N)C(=O)N(CC(C)O)C(=O)/C1=C/c1ccc(-c2ccc(C(=O)OC(C)C)cc2)o1 (stereo not shown) | – | – | – | 30.2 | 77.49 | 107.7
CC1=C(C#N)C(=O)N(CC(C)O)C(=O)/C1=C/c1ccc(-c2ccc(Cl)cc2)o1 (stereo not shown) | – | – | – | 15.04 | 74.32 | 89.37
C=CCN1C(=O)C(C#N)=C(C)/C(=C\c2ccc(-c3cccc(C(=O)O)c3)o2)C1=O | – | – | – | 31.43 | 57.81 | 89.24
CC1=C(C#N)C(=O)N(CCc2ccccc2)C(=O)/C1=C/c1ccc(-c2ccc3c(c2)COC3=O)o1 | – | – | – | 30.81 | 53.97 | 84.79
C=CCN1C(=O)/C(=C\c2ccc(OC)cc2)C(=O)NC1=S | 19.08 | 76 | 95.09 | – | – | –
CCN1C(=O)C(=Cc2ccc(O)c(I)c2)C(=O)N(CC)C1=S | 39.32 | 61.04 | 100.4 | – | – | –
C=CCN1C(=O)/C(=C\c2ccc(N(CC)CC)cc2)C(=O)NC1=S | 41.82 | 60.35 | 102.2 | – | – | –
Cc1sc(-n2c(C)cc(C=C3C(=O)NC(=S)NC3=O)c2C)c(C#N)c1C | 45.2 | 56.82 | 102 | – | – | –
CCOc1cc(C=C2C(=O)N(C)C(=S)N(C)C2=O)ccc1OC(C)C(=O)O (stereo not shown) | 41.99 | 56.22 | 98.2 | – | – | –
CCN1C(=O)C(=Cc2cccn2C)C(=O)N(CC)C1=S | 52.01 | 53.66 | 105.7 | – | – | –
CSc1ncc(/C=C2/C(=O)NC(=O)N(C3CCCCC3)C2=O)cn1 | 46.42 | 52.58 | 99 | – | – | –
O=C1NC(=O)C(=Cc2ccc(Sc3ccc(Cl)cc3)o2)C(=O)N1 | 39.96 | 52.25 | 92.22 | – | – | –
O=C1NC(=O)N(CCc2ccc(F)cc2)C(=O)/C1=C\c1ccc(O)c(O)c1 | 30.59 | 50.75 | 81.34 | – | – | –
C=CCN1C(=O)/C(=C\c2ccc(N3CCOCC3)cc2C)C(=O)NC1=S | 33.01 | 49.65 | 82.66 | – | – | –
Cc1ccccc1C=C1C(=O)N(C)C(=S)N(C)C1=O | 51.19 | 48.03 | 99.22 | – | – | –
CCc1ccc(C=C2C(=O)N(C)C(=S)N(C)C2=O)cc1 | 55.45 | 45.4 | 100.9 | – | – | –
O=C(O)C(Cc1ccccc1)N1C(=O)/C(=C/C=C/c2ccco2)SC1=S (stereo not shown) | −9.611 | 97.44 | 87.83 | – | – | –
Nc1c(C(=O)NCc2ccco2)c2nc3ccccc3nc2n1CCc1ccccc1F | 6.6 | 93.2 | 99.9 | – | – | –
O=c1c(O)c(-c2ccc(O)c(O)c2)oc2cc(O)cc(O)c12 [drawing 15] | – | – | – | 16.69 | – | 105.3
CC1=C(CC/C(C)=C/CCC2C=CC(C3=CC(=O)OC3O)OC2O)C(C)(C)CCC1 (stereo not shown) [drawing 17] | – | 71.82 | – | – | – | –
CCOc1cc(C(Nc2cccnc2)c2ccc3cccnc3c2O)ccc1O (stereo not shown) [drawing 35] | – | – | – | −0.3 | – | –
O=c1oc2c(O)c(O)cc3c(=O)oc4c(O)c(O)cc1c4c23 [drawing 165] | – | – | – | 1.26 | 89.32 | –
CC1=C(CC/C(C)=C/CCC2C=CC(C3=CC(=O)OC3O)OC2O)C(C)(C)CCC1 (stereo not shown) [drawing 207] | – | 71.82 | – | – | – | –
